Test results taken from patent publication US7691885B2, “Pyridones useful as inhibitors of kinases” (Vertex Pharmaceuticals Incorporated, priority 2005, dated 2010).

Target: T1, human Itk kinase (Homo sapiens, UniProt Q08881)
T1 sequence (Q08881 1-620): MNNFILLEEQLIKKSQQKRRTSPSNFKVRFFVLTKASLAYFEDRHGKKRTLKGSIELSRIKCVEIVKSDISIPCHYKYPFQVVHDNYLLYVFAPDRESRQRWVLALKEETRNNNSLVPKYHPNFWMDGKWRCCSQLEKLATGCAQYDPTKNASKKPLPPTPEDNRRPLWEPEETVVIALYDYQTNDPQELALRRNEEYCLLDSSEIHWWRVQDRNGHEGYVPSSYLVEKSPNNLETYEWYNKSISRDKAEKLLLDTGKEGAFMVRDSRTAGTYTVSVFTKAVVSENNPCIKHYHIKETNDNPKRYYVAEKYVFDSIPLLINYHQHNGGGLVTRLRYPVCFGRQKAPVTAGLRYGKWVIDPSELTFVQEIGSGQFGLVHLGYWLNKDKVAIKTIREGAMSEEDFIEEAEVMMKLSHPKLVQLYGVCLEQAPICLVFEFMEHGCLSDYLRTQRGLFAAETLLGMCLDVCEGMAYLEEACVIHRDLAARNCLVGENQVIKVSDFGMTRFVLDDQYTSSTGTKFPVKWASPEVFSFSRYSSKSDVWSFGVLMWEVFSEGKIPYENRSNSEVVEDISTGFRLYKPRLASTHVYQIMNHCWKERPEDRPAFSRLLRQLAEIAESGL
Assay: Itk inhibition assay (radioactivity-based or spectrophotometric coupled enzyme assay)
Assay type: biochemical
Method: The compounds of the present invention can be evaluated as inhibitors of human Itk kinase using either a radioactivity-based or spectrophotometric assay. In general, compounds of the invention, including the compound in Table 1, are effective for the inhibition of ITK. Specifically, compound I.1 has a Ki value of <2 uM.
Assays are carried out in a mixture of 100 mM HEPES (pH 7.5), 10 mM MgCl2, 25 mM NaCl, 0.01% BSA and 1 mM DTT. Final substrate concentrations are 15 μM [γ-^33P]ATP (400 μCi ^33P ATP/μmol ATP, Amersham Pharmacia Biotech/Sigma Chemicals) and 2 μM peptide (SAM68 protein Δ332-443). Assays are carried out at 25° C. in the presence of 30 nM Itk. An assay stock buffer solution is prepared containing all of the reagents listed above, with the exception of ATP and the test compound of interest. […]
IC50 data are calculated from non-linear regression analysis of the initial rate data using the Prism software package (GraphPad Prism version 3.0cx for Macintosh, GraphPad Software, San Diego Calif., USA). […]
Ki(app) data are calculated from non-linear regression analysis of the initial rate data using the Prism software package (GraphPad Prism version 3.0cx for Macintosh, GraphPad Software, San Diego Calif., USA). […]

Ki: < 2 µM
Structure (SMILES): O=c1[nH]cc(-c2ccccc2)cc1-c1cc2ccccc2[nH]1 [Compound I.1, 3-(1H-indol-2-yl)-5-phenylpyridin-2(1H)-one]
